In brackets after ≈: the same amount, converted by molar mass. Several values for one entry are separate records, joined by “and”; a condition that tells them apart may be missing. Equal entries are not always repeated.
Assays:
Test in all cases: ≥ marks a high value that may be exact or a test limit, other limits are often not marked, values filed in µg/mL are converted to µM
[1] = test system: Klebsiella pneumoniae ATCC 10031
[2] = test system: Salmonella enterica subsp. enterica serovar Typhimurium ATCC 14028
[3] = test system: Staphylococcus aureus ATCC 6538
[4] = test system: Escherichia coli ATCC 11219
[5] = test system: Pseudomonas aeruginosa ATCC 13388
[6] = test system: Pseudomonas aeruginosa PAO1
[7] = test system: Staphylococcus aureus USA 300
[8] = test system: Escherichia coli K-12
[9] = test system: Bacillus subtilis 168
[10] = test system: Bacillus subtilis 168 HT
[11] = test system: Escherichia coli MG1655
[12] = test system: Staphylococcus aureus ATCC 25923
[13] = test system: Escherichia coli ATCC 25922
[14] = test system: Bacillus subtilis ATCC 6633
[15] = test system: Pseudomonas aeruginosa ATCC BAA-427
[16] = test system: Bacillus subtilis
[17] = test system: Klebsiella pneumoniae ATCC 13883
[18] = test system: Enterococcus faecalis ATCC 29212
[19] = test system: Pseudomonas aeruginosa ATCC 27853
[20] = test system: Streptococcus pyogenes ATCC 19615
[21] = test system: Escherichia coli
[22] = test system: Listeria innocua
[23] = test system: Salmonella enterica subsp. enterica serovar Enteritidis
[24] = test system: Micrococcus luteus A270
[25] = test system: Escherichia coli SBS 363
[26] = test system: Candida albicans MDM8
[27] = test system: Staphylococcus aureus
[28] = test system: Micrococcus luteus

SMILES: CC[C@H](C)[C@H](NC(=O)CN)C(=O)N[C@@H](Cc1cnc[nH]1)C(=O)N[C@@H](CC(=O)O)C(=O)N[C@H](C(=O)N[C@@H](CC(C)C)C(=O)N[C@@H](CCCCN)C(=O)N[C@@H](Cc1ccc(O)cc1)C(=O)NCC(=O)N[C@@H](CCCCN)C(=O)N[C@@H](C)C(=O)N[C@@H](CO)C(N)=O)[C@@H](C)CC [GIHDILKYGKAS]
- MIC [1]: 30 µM (≈ 39 µg/mL)
- MIC [2]: 10 µM (≈ 13 µg/mL)
- MIC [3]: 10 µM (≈ 13 µg/mL)
- MIC [4]: ≥ 50 µM
- MIC [5]: 30 µM (≈ 39 µg/mL)

SMILES: CC[C@H](C)[C@H](NC(=O)CN)C(=O)N[C@@H](Cc1cnc[nH]1)C(=O)N[C@@H](CC(=O)O)C(=O)N[C@H](C(=O)N[C@@H](CC(C)C)C(=O)N[C@@H](CCCCN)C(=O)N[C@@H](Cc1ccc(O)cc1)C(=O)NCC(=O)N[C@@H](CCCCN)C(=O)N[C@@H](CCCCN)C(=O)N[C@@H](CO)C(N)=O)[C@@H](C)CC [GIHDILKYGKKS]
- MIC [1]: 20 µM (≈ 27.2 µg/mL)
- MIC [2]: 20 µM (≈ 27.2 µg/mL)
- MIC [3]: 30 µM (≈ 40.7 µg/mL)
- MIC [4]: 10 µM (≈ 13.6 µg/mL)
- MIC [5]: 20 µM (≈ 27.2 µg/mL)

SMILES: CC(C)[C@H](NC(=O)[C@@H](NC(=O)[C@H](CCCCN)NC(=O)CNC(=O)[C@@H](NC(=O)[C@@H](NC(=O)[C@H](CO)NC(=O)[C@@H](NC(=O)[C@@H](NC(=O)[C@@H]1CCCN1C(=O)[C@@H](NC(=O)[C@@H](NC(=O)CN)C(C)C)C(C)C)C(C)C)C(C)C)C(C)C)C(C)C)C(C)C)C(N)=O [GVVPVVSVVGKVV]
- MIC [6]: > 100 µM
- MIC [7]: ≥ 100 µM
- MIC [8]: ≥ 100 µM
- MIC [9]: ≥ 100 µM

SMILES: CC[C@H](C)[C@H](NC(=O)[C@@H](NC(=O)[C@H](CCCCN)NC(=O)[C@H](CCCCN)NC(=O)[C@H](Cc1ccccc1)NC(=O)[C@@H](N)CCCCN)C(C)C)C(=O)N[C@@H](Cc1c[nH]c2ccccc12)C(=O)N[C@@H](CCCCN)C(=O)N[C@@H](CO)C(=O)N[C@@H](Cc1ccccc1)C(=O)N[C@@H](CC(C)C)C(=O)O [KFKKVIWKSFL]
- MIC [10]: ≥ 45 µM
- MIC [11]: ≥ 90 µM

SMILES: CC(C)C[C@H](NC(=O)[C@H](CC(C)C)NC(=O)[C@H](CCCN=C(N)N)NC(=O)[C@H](CCCN=C(N)N)NC(=O)[C@H](CCCCN)NC(=O)[C@H](C)NC(=O)[C@H](CCCCN)NC(=O)[C@@H](N)CCCCN)C(=O)N[C@@H](CCCCN)C(=O)N[C@@H](CCCCN)C(=O)O [KKAKRRLLKK]
- MIC [10]: ≥ 101 µM
- MIC [11]: ≥ 101 µM

SMILES: CC(C)C[C@H](NC(=O)[C@H](CC(=O)O)NC(=O)[C@H](CC(C)C)NC(=O)[C@H](CCCCN)NC(=O)[C@H](CC(C)C)NC(=O)[C@H](CC(=O)O)NC(=O)[C@H](CC(C)C)NC(=O)[C@H](CCCCN)NC(=O)[C@H](CC(C)C)NC(=O)[C@H](CC(=O)O)NC(=O)[C@H](CC(C)C)NC(=O)[C@@H](N)CCCCN)C(=O)O [KLDLKLDLKLDL]
- MIC [12]: > 100 µM
- MIC [13]: > 100 µM
- MIC [14]: ≥ 100 µM
- MIC [15]: ≥ 100 µM

SMILES: CC(C)C[C@H](NC(=O)[C@H](CC(C)C)NC(=O)[C@H](CCCCN)NC(=O)[C@H](CC(C)C)NC(=O)[C@H](CCCCN)NC(=O)[C@H](CC(C)C)NC(=O)[C@H](CCCCN)NC(=O)[C@H](CC(C)C)NC(=O)[C@H](CC(C)C)NC(=O)[C@H](CC(C)C)NC(=O)[C@@H](N)CCCCN)C(=O)N[C@@H](CCCCN)C(N)=O [KLLLKLKLKLLK]
- MIC [16]: ≥ 50 µM
- MIC [2]: > 200 µM
- MIC [17]: ≥ 200 µM
- MIC [12]: 50 µM (≈ 72.5 µg/mL)
- MIC [18]: 100 µM (≈ 145 µg/mL)
- MIC [19]: 100 µM (≈ 145 µg/mL)
- MIC [20]: ≥ 50 µM
- MIC [21]: 50 µM (≈ 72.5 µg/mL)

SMILES: CC[C@H](C)[C@H](NC(=O)CNC(=O)[C@@H](NC(=O)[C@H](CCCCN)NC(=O)[C@@H](NC(=O)CNC(=O)[C@H](CC(C)C)NC(=O)[C@H](Cc1c[nH]c2ccccc12)NC(=O)[C@H](CCCN=C(N)N)NC(=O)[C@@H](N)CC(C)C)[C@@H](C)O)C(C)C)C(=O)N[C@@H](CC(C)C)C(=O)N[C@@H](CCCCN)C(=O)O [LRWLGTKVGILK]
- MIC [10]: ≥ 92 µM
- MIC [11]: ≥ 92 µM

SMILES: CC(C)C[C@H](N)C(=O)N[C@@H](CO)C(=O)N[C@@H](Cc1ccccc1)C(=O)N1CCC[C@H]1C(=O)N[C@H](C(=O)N[C@H](C(=O)N[C@@H](CCCCN)C(=O)N[C@H](C(=O)N[C@@H](Cc1ccc(O)cc1)C(=O)N[C@@H](Cc1ccccc1)C(=O)N1CCC[C@H]1C(=O)N[C@@H](Cc1cnc[nH]1)C(=O)N[C@@H](Cc1ccccc1)C(=O)O)[C@@H](C)O)[C@@H](C)O)[C@@H](C)O [LSFPTTKTYFPHF]
- MIC [22]: 1 µM (≈ 1.59 µg/mL)
- MIC [21]: 9 µM (≈ 14.3 µg/mL)
- MIC [23]: 5 µM (≈ 7.93 µg/mL)
- MIC [24]: 5 µM (≈ 7.93 µg/mL)

SMILES: CC[C@H](C)[C@H](NC(=O)[C@H](CC(C)C)NC(=O)[C@H](CO)NC(=O)[C@H](CC(C)C)NC(=O)[C@H](CC(C)C)NC(=O)[C@@H](N)CCCN=C(N)N)C(=O)N[C@@H](CCCN=C(N)N)C(=O)N[C@@H](CCCCN)C(=O)N[C@@H](CC(C)C)C(=O)N[C@H](C(=O)N[C@H](C(N)=O)[C@@H](C)O)[C@@H](C)CC [RLLSLIRKLIT]
- MIC [24]: 0.5 µM (≈ 0.662 µg/mL)
- MIC [25]: 1.56 µM (≈ 2.07 µg/mL)
- MIC [26]: 0.78 µM (≈ 1.03 µg/mL)

SMILES: C[C@@H](O)[C@H](N)C(=O)N[C@@H](CO)C(=O)N[C@@H](CCCCN)C(=O)N[C@@H](Cc1ccc(O)cc1)C(=O)N[C@@H](CCCN=C(N)N)C(=O)O [TSKYR]
- MIC [22]: 1 µM (≈ 0.654 µg/mL)
- MIC [27]: 1 µM (≈ 0.654 µg/mL)
- MIC [21]: 9 µM (≈ 5.88 µg/mL)
- MIC [23]: 5 µM and 4.6 µM
- MIC [24]: 9 µM (≈ 5.88 µg/mL)
- MIC [28]: 9 µM (≈ 5.88 µg/mL)

SMILES: CC[C@H](C)[C@H](NC(=O)CNC(=O)[C@@H](N)Cc1c[nH]c2ccccc12)C(=O)N[C@@H](Cc1cnc[nH]1)C(=O)N[C@@H](CCCN=C(N)N)C(=O)N[C@H](C(=O)N[C@@H](CC(C)C)C(=O)N[C@@H](CCCCN)C(=O)N[C@@H](Cc1ccc(O)cc1)C(=O)NCC(=O)N[C@@H](CCCCN)C(=O)N1CCC[C@H]1C(=O)N[C@@H](CO)C(=O)O)[C@@H](C)CC [WGIHRILKYGKPS]
- MIC [1]: 12 µM (≈ 18.7 µg/mL)
- MIC [2]: 10 µM (≈ 15.5 µg/mL)
- MIC [3]: 8 µM (≈ 12.4 µg/mL)
- MIC [4]: 8 µM (≈ 12.4 µg/mL)
- MIC [5]: 12 µM (≈ 18.7 µg/mL)

SMILES: CC(C)C[C@H](NC(=O)[C@H](CO)NC(=O)[C@H](CCCN=C(N)N)NC(=O)[C@H](CCCCN)NC(=O)[C@@H](NC(=O)[C@@H](NC(=O)CNC(=O)[C@H](CCCN=C(N)N)NC(=O)[C@H](Cc1cnc[nH]1)NC(=O)[C@H](Cc1c[nH]c2ccccc12)NC(=O)[C@H](Cc1ccccc1)NC(=O)[C@H](Cc1cnc[nH]1)NC(=O)[C@H](Cc1ccc(O)cc1)NC(=O)[C@@H](N)Cc1ccc(O)cc1)C(C)C)[C@@H](C)O)C(=O)N[C@@H](CO)C(=O)N1CCC[C@H]1C(=O)N[C@@H](Cc1cnc[nH]1)C(=O)O [YYHFWHRGVTKRSLSPH]
- MIC [16]: ≥ 100 µM
- MIC [2]: > 100 µM
- MIC [17]: ≥ 100 µM
- MIC [12]: > 100 µM
- MIC [18]: > 100 µM
- MIC [19]: > 100 µM
- MIC [20]: ≥ 100 µM
- MIC [21]: 30 µM (≈ 65.1 µg/mL)
